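Grown in 96-well plates, cells were treated for 48 hours with each compound at five concentrations. Insufficient inhibition: endpoint recorded as highest concentration tested. The concentration for 50% growth inhibition is given as GI50.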 Activity calls are given as the source filed them. No stated cut-off is given here; in the data, active = GI50 up to about 1.1 µM and inactive = higher.
Assays:
Assay in all cases: DTP human tumour cell line panel, 48 h
NCI/ADR-RES = tested on: NCI/ADR-RES
IGROV-1 = tested on: IGROV-1
MCF7 = tested on: MCF7
MOLT-4 = tested on: MOLT-4
SR = tested on: SR
NCI-H23 = tested on: NCI-H23
CAKI-1 = tested on: CAKI-1
TK-10 = tested on: TK-10
OVCAR-8 = tested on: OVCAR-8
ACHN = tested on: ACHN
A549 = tested on: A549
Malme-3M = tested on: Malme-3M
NCI-H522 = tested on: NCI-H522
CCRF-CEM = tested on: CCRF-CEM
BT-549 = tested on: BT-549
UACC-257 = tested on: UACC-257
SK-MEL-2 = tested on: SK-MEL-2
NCI-H460 = tested on: NCI-H460
UO-31 = tested on: UO-31
HT-29 = tested on: HT-29
OVCAR-4 = tested on: OVCAR-4
Hs-578T = tested on: Hs-578T
COLO 205 = tested on: COLO 205
MDA-N = tested on: MDA-N
NCI-H226 = tested on: NCI-H226
MDA-MB-435 = tested on: MDA-MB-435
RPMI-8226 = tested on: RPMI-8226
HCT-116 = tested on: HCT-116
KM12 = tested on: KM12
786-0 = tested on: 786-0
HL-60 = tested on: HL-60
MDA-MB-231 = tested on: MDA-MB-231
OVCAR-3 = tested on: OVCAR-3
SF-539 = tested on: SF-539
EKVX = tested on: EKVX
SNB-75 = tested on: SNB-75
SF-268 = tested on: SF-268
SK-MEL-28 = tested on: SK-MEL-28
SK-MEL-5 = tested on: SK-MEL-5
SN12C = tested on: SN12C
T47D = tested on: T47D
OVCAR-5 = tested on: OVCAR-5
SNB-19 = tested on: SNB-19
K562 = tested on: K562
RXF 393 = tested on: RXF 393
LOX IMVI = tested on: LOX IMVI
HOP-62 = tested on: HOP-62
HCC 2998 = tested on: HCC 2998
PC-3 = tested on: PC-3
HOP-92 = tested on: HOP-92
SK-OV-3 = tested on: SK-OV-3
HCT-15 = tested on: HCT-15
A498 = tested on: A498
SF-295 = tested on: SF-295
U-251 = tested on: U-251
UACC-62 = tested on: UACC-62
DU-145 = tested on: DU-145
SW-620 = tested on: SW-620
M14 = tested on: M14

SMILES: O=[N+]([O-])c1ccc2ncccc2c1CCc1c([N+](=O)[O-])ccc2ncccc12
- GI50 (NCI/ADR-RES): > 100 µM (inactive)
- GI50 (IGROV-1): > 100 µM (inactive)
- GI50 (MCF7): > 100 µM (inactive)
- GI50 (MOLT-4): > 100 µM (inactive)
- GI50 (SR): > 100 µM (inactive)
- GI50 (NCI-H23): > 100 µM (inactive)
- GI50 (CAKI-1): > 100 µM (inactive)
- GI50 (TK-10): > 100 µM (inactive)
- GI50 (OVCAR-8): > 100 µM (inactive)
- GI50 (ACHN): > 100 µM (inactive)
- GI50 (A549): > 100 µM (inactive)
- GI50 (Malme-3M): > 100 µM (inactive)
- GI50 (NCI-H522): > 100 µM (inactive)
- GI50 (CCRF-CEM): > 100 µM (inactive)
- GI50 (BT-549): > 100 µM (inactive)
- GI50 (UACC-257): > 100 µM (inactive)
- GI50 (SK-MEL-2): > 100 µM (inactive)
- GI50 (NCI-H460): > 100 µM (inactive)
- GI50 (UO-31): > 100 µM (inactive)
- GI50 (HT-29): > 100 µM (inactive)
- GI50 (OVCAR-4): > 100 µM (inactive)
- GI50 (Hs-578T): > 100 µM (inactive)
- GI50 (COLO 205): > 100 µM (inactive)
- GI50 (MDA-N): > 100 µM (inactive)
- GI50 (NCI-H226): > 100 µM (inactive)
- GI50 (MDA-MB-435): > 100 µM (inactive)
- GI50 (RPMI-8226): > 100 µM (inactive)
- GI50 (HCT-116): > 100 µM (inactive)
- GI50 (KM12): > 100 µM (inactive)
- GI50 (786-0): > 100 µM (inactive)
- GI50 (HL-60): > 100 µM (inactive)
- GI50 (MDA-MB-231): > 100 µM (inactive)
- GI50 (OVCAR-3): > 100 µM (inactive)
- GI50 (SF-539): > 100 µM (inactive)
- GI50 (EKVX): > 100 µM (inactive)
- GI50 (SNB-75): > 100 µM (inactive)
- GI50 (SF-268): > 100 µM (inactive)
- GI50 (SK-MEL-28): > 100 µM (inactive)
- GI50 (SK-MEL-5): > 100 µM (inactive)
- GI50 (SN12C): > 100 µM (inactive)
- GI50 (T47D): > 100 µM (inactive)
- GI50 (OVCAR-5): > 100 µM (inactive)
- GI50 (SNB-19): > 100 µM (inactive)
- GI50 (K562): > 100 µM (inactive)
- GI50 (RXF 393): > 100 µM (inactive)
- GI50 (LOX IMVI): > 100 µM (inactive)
- GI50 (HOP-62): > 100 µM (inactive)
- GI50 (HCC 2998): > 100 µM (inactive)
- GI50 (PC-3): > 100 µM (inactive)
- GI50 (HOP-92): > 35.3 µM (inactive)
- GI50 (SK-OV-3): > 100 µM (inactive)
- GI50 (HCT-15): > 100 µM
- GI50 (A498): > 100 µM (inactive)
- GI50 (SF-295): > 100 µM (inactive)
- GI50 (U-251): > 100 µM (inactive)
- GI50 (UACC-62): > 100 µM (inactive)
- GI50 (DU-145): > 100 µM (inactive)
- GI50 (SW-620): > 100 µM (inactive)
- GI50 (M14): > 100 µM (inactive)

From ChEMBL document CHEMBL1201862, “PubChem BioAssay data set” (2004)
